What was measured:
[1] = pH, osmolality and density of unitary dosage form aqueous solutions; assay type: physicochemical; conditions: aqueous solution
Description: Osmolality values were determined according to USP, chapter […] under the heading “Osmolality and Osmolarity”.
Certain compositions of the invention were prepared in unitary dosage form, in the form of an aqueous solution, for weekly, biweekly or monthly administration, comprising sodium chlodronate in tetrahydrate form, whose quali-quantitative compositions and pH, osmolality, and density values, are shown in Table 8 below.
As it is apparent from the table, all the compositions prepared had particularly high osmolality values. Osmolalities were determined by GONOTEC Osmometer, OSMOMAT 3000-D model, serial number 3000150264 according to USP, chapter 785 under the title “Osmolality and Osmolarity”.

[2] = tested on: CTX-I (C-telopeptide of type I collagen); assay: CTX-I final serum concentration, MIA-induced OA rats, weekly treatment; assay type: in vivo, Sprague Dawley rats
Description: (§1) As an experimental model of OA induction, one involving the intra-articular administration of MIA (monosodium iodoacetate) was used.
(§2) The rats were anesthetized by a gaseous mixture of isoflurane and oxygen, and maintained in a supine position. Once the infrapatellar ligament was identified by touch, a single intra-articular injection of monosodium iodoacetate (MIA) was performed in the right knee, after having shaved the skin of the area, while keeping the joint slightly flexed. The amount of MIA injected was equal to 1 mg dissolved in 50 μl of saline solution, having a pH of about 4.5, as measured just before administration. The joint of the left knee was instead injected with 50 μl of saline solution alone, and this represented the internal control.
(§3) The treatment involved 4 weekly administrations of sodium chlodronate, followed by one week of follow-up.
(§4) The study included 8 treatment groups, each consisting of 10 male Sprague Dawley rats, specifically five treatment groups consisting of OA rats, on which the chlodronate doses of 2, 10, 20, 30, and 40 mg/ml, corresponding to 0.1, 0.5, 1, 1.5, and 2 mg/rat, were tested, and the remaining three groups represented by untreated OA rats, operated but untreated Sham rats, and rats administered only with placebo at pH 4.5.
(§5) During the treatment period, the animals were regularly checked in relation to the increase in body mass, food intake, and general health conditions. Clinical and hematological analyses were performed at the end of the study. The difference between the size of the edema in the two inflamed knees for all the observation groups, the final serum concentration of CTX-I (C-telopeptide of type I collagen), as a marker of bone turnover, and the final serum concentration of CTX-II (C-telopeptide of type II collagen), as a marker of cartilage turnover were investigated.
Considering that CTX-I (C-telopeptide of type I collagen) is a bone turnover marker and its concentration levels are proportional to the osteoclastic activity, the measurement of CTX-I final serum concentration value is a measure of the treatment efficacy.

[3] = tested on: CTX-II (C-telopeptide of type II collagen); assay: CTX-II final serum concentration, MIA-induced OA rats, weekly treatment; assay type: in vivo, Sprague Dawley rats
Description: as §1, §2, §3, §4, §5
Considering that CTX-II (C-telopeptide of type II collagen) is a cartilage turnover marker and its concentration levels are proportional to the […], the measurement of CTX-II final serum concentration value is a measure of the treatment efficacy.

[4] = tested on: OA rats (bilateral anterior cruciate ligament surgical resection); assay: Histopathological evaluation (modified Mankin score), OA rats by anterior cruciate ligament resection, monthly treatment; assay type: in vivo, Sprague Dawley rats; conditions: 4 monthly i.a. doses, scale 0 (normal) to 15 (seriously damaged)
Description: In this study, the efficacy of a treatment performed by monthly intra-articular administration of sodium chlodronate on male “Sprague Dawley” rats affected by OA was evaluated. The treatment involved 4 monthly doses of sodium chlodronate, followed by one month of follow-up.
In the experimental model, OA was induced in rats by bilateral anterior cruciate ligament surgical resection in both hind limbs.
A volume of 50 μL of treatment solution, having a pH of about 4.5, as measured just before administration, was injected into the intra-articular cavity of each knee.
The study included 5 treatment groups, each consisting of 10 male rats, specifically two treatment groups consisting of OA rats, on which chlodronate doses of 8 and 12 mg/ml, corresponding to 0.4 and 0.6 mg/rat, were tested, and remaining three groups represented by untreated OA rats, operated but untreated Sham rats, and rats receiving placebo alone.
During the treatment period, the animals were regularly checked in relation to the increase in body mass, food intake and general health conditions. Clinical and hematological analyses were performed at the end of the study. […]

OA rats (MIA model) = assay: Difference in edema size between right and left knees, MIA-induced OA rats, weekly intra-articular treatment; assay type: in vivo, Sprague Dawley rats; conditions: 4 weekly i.a. administrations
Excerpt: as §1
The IA injection of MIA creates a model of acute inflammation that allows the study of cartilage degradation and joint pain.
as §2, §3, §4, §5
The measurement of the difference in size of the right and left knee edema (indicated with D and expressed in mm) was performed on anesthetized rats, by using a digital caliper (Digi-max slide caliper W/LCD readout Sigma Aldrich).

[5] = tested on: patients with osteoarthritis of the knee; conditions: 20 patients, IA 0.9 mg on days 1, 3, 7, 10, 14 and 21; cited from earlier work
[6] = 5.00 mg sodium chlodronate per unitary dosage form (1 ml)
[7] = 10.00 mg sodium chlodronate per unitary dosage form (1 ml)
[8] = 20.00 mg sodium chlodronate per unitary dosage form (1 ml)
[9] = 30.00 mg sodium chlodronate per unitary dosage form (1 ml)
[10] = 40.00 mg sodium chlodronate per unitary dosage form (1 ml)

Structure (SMILES): O=P([O-])(O)C(Cl)(Cl)P(=O)([O-])O.[Na+].[Na+] [Sodium Chlodronate, sodium chlodronate]
- Density [1, 6]: 1.014 g/mL
- Osmolality (mOsm/Kg) [1, 6]: 395 mOsm/Kg
- pH [1, 6]: 4.6
- Density [1, 7]: 1.016 g/mL
- Osmolality (mOsm/Kg) [1, 7]: 400 mOsm/Kg
- pH [1, 7]: 4.5
- Density [1, 8]: 1.021 g/mL
- Osmolality (mOsm/Kg) [1, 8]: 388 mOsm/Kg
- pH [1, 8]: 4.4
- Density [1, 9]: 1.027 g/mL
- Osmolality (mOsm/Kg) [1, 9]: 408 mOsm/Kg
- pH [1, 9]: 4.4
- Density [1, 10]: 1.032 g/mL
- Osmolality (mOsm/Kg) [1, 10]: 413 mOsm/Kg
- pH [1, 10]: 4.5
- CTX-I Value ([2]; 2 mg/mL weekly i.a.): 4.77 pg/mL
- CTX-I Value ([2]; 10 mg/mL weekly i.a.): 4.87 pg/mL
- CTX-I Value ([2]; 20 mg/mL weekly i.a.): 4.6 pg/mL
- CTX-I Value ([2]; 30 mg/mL weekly i.a.): 4.36 pg/mL
- CTX-I Value ([2]; 40 mg/mL weekly i.a.): 4.16 pg/mL
- CTX-II Value ([3]; 2 mg/mL weekly i.a.): 6.84 pg/mL
- CTX-II Value ([3]; 10 mg/mL weekly i.a.): 6.48 pg/mL
- CTX-II Value ([3]; 20 mg/mL weekly i.a.): 5.93 pg/mL
- CTX-II Value ([3]; 30 mg/mL weekly i.a.): 5.67 pg/mL
- CTX-II Value ([3]; 40 mg/mL weekly i.a.): 5.73 pg/mL
- Mankin Index Mean Value ± SEM ([4]; 8 mg/ml (0.4 mg/rat)): 4.9 ± 0.458
- Mankin Index Mean Value ± SEM ([4]; 12 mg/ml (0.6 mg/rat)): 2.6 ± 0.618
- D, Mean Value (mm) ± SEM (difference in size of right and left knee edema) (OA rats (MIA model); 2 mg/ml (0.1 mg/rat)): 0.37 ± 0.067 mm
- D, Mean Value (mm) ± SEM (difference in size of right and left knee edema) (OA rats (MIA model); 10 mg/ml (0.5 mg/rat)): 0.28 ± 0.063 mm
- D, Mean Value (mm) ± SEM (difference in size of right and left knee edema) (OA rats (MIA model); 20 mg/ml (1 mg/rat)): 0.27 ± 0.047 mm
- D, Mean Value (mm) ± SEM (difference in size of right and left knee edema) (OA rats (MIA model); 30 mg/ml (1.5 mg/rat)): 0.11 ± 0.043 mm
- D, Mean Value (mm) ± SEM (difference in size of right and left knee edema) (OA rats (MIA model); 40 mg/ml (2 mg/rat)): 0.28 ± 0.033 mm
- effect on pain symptoms (spontaneous pain and pain in movement) [5]: marked positive effect
